Data published in patent US4323567A, “Arylmalonamido-1-oxadethiacephalosporins” (priority 1976, dated 1982).
Like-named read-outs stand apart in the source and are kept apart here.

Legend:
Experiment in all cases: Minimal inhibitory concentration, nutrient agar plate
E. coli 377 = format: cell-based, Escherichia coli; conditions: Escherichia coli, 377, inoculum size 10^8, pH 7.0, read-out: Minimal inhibitory concentration
Klebsiella sp. 363 = format: cell-based; conditions: inoculum size 10^8, pH 7.0, read-out: Minimal inhibitory concentration
Klebsiella pneumoniae = format: cell-based; conditions: inoculum size 10^8, pH 7.0, read-out: Minimal inhibitory concentration
Ps. aeruginosa 25619 = format: cell-based, Pseudomonas aeruginosa; conditions: Pseudomonas aeruginosa, 25619, inoculum size 10^8, pH 7.0, read-out: Minimal inhibitory concentration
[1] = tested on: Serratia marsescens 13880; format: cell-based; conditions: Serratia, 13880, inoculum size 10^8, pH 7.0, read-out: Minimal inhibitory concentration
P. vulgaris CN-329 = format: cell-based; conditions: Proteus vulgaris, CN329, inoculum size 10^8, pH 7.0, read-out: Minimal inhibitory concentration
Enterobacter cloacae 233 = format: cell-based; conditions: Enterobacter cloacae, 233, inoculum size 10^8, pH 7.0, read-out: Minimal inhibitory concentration
[2] = tested on: Pseudomonas aeruginosa Denken; format: cell-based; conditions: inoculum size 10^8, pH 7.0, read-out: Minimal inhibitory concentration
Escherichia coli H = format: cell-based; conditions: inoculum size 10^8, pH 7.0, read-out: Minimal inhibitory concentration
E. coli 73 = format: cell-based, Escherichia coli; conditions: Escherichia coli, 73, inoculum size 10^8, pH 7.0, read-out: Minimal inhibitory concentration
Ps. aeruginosa 24 = format: cell-based, Pseudomonas aeruginosa; conditions: Pseudomonas aeruginosa, 24, inoculum size 10^8, pH 7.0, read-out: Minimal inhibitory concentration
E. coli JC-2 = format: cell-based; conditions: Escherichia coli, JC2, inoculum size 10^8, pH 7.0, read-out: Minimal inhibitory concentration
P. morganii No. 9 = format: cell-based, Proteus morganii; conditions: Morganella morganii, NO.9, inoculum size 10^8, pH 7.0, read-out: Minimal inhibitory concentration
Proteus mirabilis PR-4 = format: cell-based; conditions: inoculum size 10^8, pH 7.0, read-out: Minimal inhibitory concentration
[3] = ester, in the presence of 5% horse serum, sodium salt

SMILES	MIC (E. coli 377; as sodium salt) [µg/mL]	MIC (Klebsiella sp. 363; SP.363, as sodium salt) [µg/mL]	MIC (Klebsiella pneumoniae; as sodium salt) [µg/mL]	MIC (Ps. aeruginosa 25619; as sodium salt) [µg/mL]	MIC ([1]; as sodium salt) [µg/mL]	MIC (P. vulgaris CN-329; as sodium salt) [µg/mL]	MIC (Enterobacter cloacae 233; as sodium salt) [µg/mL]	MIC ([2]; as sodium salt) [µg/mL]	MIC (Escherichia coli H; as sodium salt) [µg/mL]	MIC (E. coli 73; as sodium salt) [µg/mL]	MIC (Ps. aeruginosa 24; as sodium salt) [µg/mL]	MIC (E. coli JC-2; as sodium salt) [µg/mL]	MIC (P. morganii No. 9; as sodium salt) [µg/mL]	MIC (Proteus mirabilis PR-4; PR4, as sodium salt) [µg/mL]	further results
CC1=C(C(=O)O)N2C(=O)[C@@H](NC(=O)C(N)c3ccccc3)[C@H]2OC1 (stereo partly drawn) [(1), 7β-(α-phenylglycinamido)3-methyl-1-oxadethia-3-cephem-4-carboxlic acid, reference compound]	> 100	> 100	> 100	> 100	> 100	> 100	> 100	> 100	> 100	> 100	> 100	> 100	> 100	> 100	–
Cc1nnc(SCC2=C(C(=O)O)N3C(=O)[C@@H](NC(=O)C(C(=O)O)c4ccccc4)[C@H]3OC2)s1 (stereo partly drawn) [Example III-12, 7β-(α-phenyl-α-carboxyacetamido)-3-(2-methyl-1,3,4-thiadiazol-5-yl)thiomethyl-1-oxadethia-3-cephem-4-carboxylic acid]	0.78	> 100	0.78	3.13	1.56	100	1.56	> 100	0.2	> 100	> 100	0.39	0.39	0.39	–
Cn1nnnc1SCC1=C(C(=O)O)N2C(=O)[C@@H](NC(=O)C(O)c3ccccc3)[C@H]2OC1 (stereo partly drawn) [(4), 7β-mandelamido3-(1-methyltetrazol-5-yl)thiomethyl-1-oxadethia-3-cephm-4-carboxylic acid, reference compound]	50	> 100	0.2	> 100	100	> 100	> 100	> 100	0.1	> 100	> 100	0.2	100	0.2	–
CC(=O)OCC1=C(C(=O)O)N2C(=O)[C@@H](NC(=O)Cc3cccs3)[C@H]2OC1 [(2), 7β-(2thienylacetamido)-1-oxadethiacephalosporanic acid, reference compound]	> 100	> 100	1.56	> 100	> 100	> 100	> 100	> 100	0.39	> 100	> 100	6.25	> 100	1.56	–
Cn1nnnc1SCC1=C(C(=O)O)N2C(=O)[C@@H](NC(=O)C(C(=O)O)c3ccccc3)[C@H]2OC1 (stereo partly drawn) [Example III-1, 7β-(α-phenyl-α-carboxyacetamido)-3-(1-methyltetrazol-5-yl)thiomethyl-1-oxadethia-3-cephem-4-carboxylic acid]	0.2	–	0.2	3.13	0.78	100	0.39	> 100	0.1	> 100	> 100	0.2	0.39	0.39	–
Cn1nnnc1SCC1=C(C(=O)O)N2C(=O)[C@@H](NC(=O)C(C(=O)O)c3cccs3)[C@H]2OC1 (stereo partly drawn) [Example III-8, 7β-[α-(2-thienyl)-α-carboxyacetamido]-3-(1-methyltetrazol-5-yl)thiomethyl-1-oxadethia-3-cephem-4-carboxylic acid]	0.2	> 100	0.1	3.13	0.78	50	0.2	> 100	0.1	> 100	> 100	0.1	0.39	0.2	–
Cn1nnnc1SCC1=C(C(=O)[O-])N2C(=O)[C@@H](NC(=O)C(C(=O)Oc3ccc4c(c3)CCC4)c3ccccc3)[C@H]2OC1.[Na+] (stereo partly drawn) [Example III-2, sodium 7β-[α-(5-indanyl)oxycarbonyl-α-phenylacetamido]-3-(1-methyltetrazol-5-yl)thiomethyl-1-oxadethia-3-cephem-4-carboxylate]	–	–	–	–	–	–	–	–	–	–	–	–	–	–	MIC (E. coli 377; [3]): 0.2 µg/mL; MIC (Klebsiella sp. 363; SP.363, ester, in the presence of 5% horse serum, sodium salt): > 100 µg/mL; MIC (Klebsiella pneumoniae; [3]): 0.2 µg/mL; MIC (Ps. aeruginosa 25619; [3]): 6.25 µg/mL; MIC [1, 3]: 0.78 µg/mL; MIC (P. vulgaris CN-329; [3]): 50 µg/mL; MIC (Enterobacter cloacae 233; [3]): 0.39 µg/mL; MIC [2, 3]: > 100 µg/mL; MIC (Escherichia coli H; [3]): 0.1 µg/mL; MIC (E. coli 73; [3]): > 100 µg/mL; MIC (Ps. aeruginosa 24; [3]): > 100 µg/mL; MIC (E. coli JC-2; [3]): 0.2 µg/mL; MIC (P. morganii No. 9; [3]): 0.39 µg/mL; MIC (Proteus mirabilis PR-4; PR4, ester, in the presence of 5% horse serum, sodium salt): 0.39 µg/mL
Cc1nnc(SCC2=C(C(=O)O)N3C(=O)[C@@H](NC(=O)Cn4cnnn4)[C@H]3OC2)s1 [(3), 7β-(1tetrazolyl)acetamido-3-(2-methyl-1,3,4-thiadiazol-5-yl)thiomethl-1-oxadethia-3-cephem-4-carboxylic acid, reference compound]	25	> 100	3.13	> 100	> 100	> 100	> 100	> 100	1.56	> 100	> 100	1.56	50	1.56	–
O=C(O)Cn1nnnc1SCC1=C(C(=O)O)N2C(=O)[C@@H](NC(=O)C(C(=O)O)c3ccccc3)[C@H]2OC1 (stereo partly drawn) [Example III-10, 7β-(α-carboxy-α-phenylacetamido)-3-(1-carboxymethyltetrazol-5-yl)thiomethyl-1-oxadethia-3-cephem-4-carboxylic acid]	0.25	> 100	3.13	100	50	> 100	12.5	> 100	0.78	> 100	> 100	3.13	0.78	0.78	–
Cn1nnnc1SCC1=C(C(=O)O)N2C(=O)[C@@H](NC(=O)C(C(=O)O)c3ccsc3)[C@H]2OC1 (stereo partly drawn) [Example III-9, 7β-[α-(3-thienyl)-α-carboxyacetamido]-3-(1-methyltetrazol-5-yl)thiomethyl-1-oxadethia-3-cephem-4-carboxylic acid]	0.2	> 100	0.2	6.25	0.78	100	0.39	> 100	0.1	> 100	–	0.1	0.39	0.39	–
O=C(O)Cn1nnnc1SCC1=C(C(=O)O)N2C(=O)[C@@H](NC(=O)C(C(=O)O)c3cccs3)[C@H]2OC1 (stereo partly drawn) [Example III-11, 7β-[α-(2-thienyl)-α-carboxyacetamido]-3-(1-carboxymethyltetrazol-5-yl)thiomethyl-1-oxadethia-3-cephem-4-carboxylic acid]	6.25	> 100	3.13	> 100	25	> 100	25	> 100	0.78	> 100	–	12.5	1.56	1.56	–
